# Tested on: Caco-2 monolayers (efflux transport of Rhodamine 123)
# Test: Inhibition Protocol: Rhodamine 123 transport across Caco-2 monolayers in the presence of TPGS analog
# Format: cell-based
# Conditions: relative to Rhodamine 123 alone, TPGS analog 33 μmolar
# Method: As used herein, the term “Inhibition Protocol” or “inhibition protocol” refers to the following test. The test is carried out using Caco-2 (C2BBe1 or HTB-37) monolayers which are known to be a good in vitro model for gastrointestinal epithelial cells. The following describes the inhibition protocol: Caco-2 cells, clone C2BBe1, from passages 48-92 are used. Cells are grown to ˜90% confluent in 75 cm^2 T-flasks with Dulbecco's modified Eagle's medium (DMEM) supplemented with 10% fetal bovine serum (FBS) and 1% non-essential amino-acids. Cells are grown at a temperature of ˜37° C. in an atmosphere of ˜85% relative humidity and ˜5% CO2. Cells are seeded on top of Transwell® inserts (pore size 0.4 μm, 1.13 cm^2) at a density of ˜60,000 cells/cm^2. […]
# Rhodamine 123 (RHO) transport is assessed in absorptive (apical to basolateral, Ap→BI) and secretory (BI→Ap) directions. […]
# Monolayers are agitated using an orbital shaker at ˜100±20 rpm. […] To ensure integrity of the monolayers, TEER values were measured on the day of the experiment and at the end of the experiment.
# Apparent permeability (Papp) was calculated according to: Papp=(dQ/dt)*(1/A)*(1/Co)
# where A (cm^2) is the nominal surface area of the monolayer and C0 (μg/mL) is the RHO concentration in the donor compartment at t=0. Relative change of Papp(cm/s)was calculated according to the equation: rel. increase/decrease=|(1−Papp(TPGS)/Papp(RHO))*100|. […]
substance,measurement,value
d-α-tocopheryl polyethylene glycol succinate [TPGS 1000],"% Decrease, B to A",73.6%
same,"% Increase, A to B",82.5%
